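Results reflect a 48-hour exposure of cells in 96-well plates to compound at five concentrations. GI50 is the concentration that inhibits growth by half.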 Active and inactive are the calls of the source. Rule as the data show it: active = GI50 up to about 1.1 µM and inactive = higher.
Tests used:
Assay in all cases: DTP human tumour cell line panel, 48 h
BT-549 = test system: BT-549
EKVX = test system: EKVX
HCT-15 = test system: HCT-15
HOP-62 = test system: HOP-62
KM12 = test system: KM12
LOX IMVI = test system: LOX IMVI
MOLT-4 = test system: MOLT-4
NCI-H226 = test system: NCI-H226
NCI-H460 = test system: NCI-H460
OVCAR-5 = test system: OVCAR-5
OVCAR-8 = test system: OVCAR-8
PC-3 = test system: PC-3
RPMI-8226 = test system: RPMI-8226
RXF 393 = test system: RXF 393
SF-268 = test system: SF-268
SK-MEL-28 = test system: SK-MEL-28
SK-MEL-5 = test system: SK-MEL-5
SNB-75 = test system: SNB-75
UACC-257 = test system: UACC-257
Hs-578T = test system: Hs-578T

Row | Structure (SMILES) | GI50 (BT-549) | GI50 (EKVX) | GI50 (HCT-15) | GI50 (HOP-62) | GI50 (KM12) | GI50 (LOX IMVI) | GI50 (MOLT-4) | GI50 (NCI-H226) | GI50 (NCI-H460) | GI50 (OVCAR-5) | GI50 (OVCAR-8) | GI50 (PC-3) | GI50 (RPMI-8226) | GI50 (RXF 393) | GI50 (SF-268) | GI50 (SK-MEL-28) | GI50 (SK-MEL-5) | GI50 (SNB-75) | GI50 (UACC-257) | GI50 (Hs-578T)
1 | CC1(C)[C@@H]2C[C@H]1[C@@H](Cc1cccc(C[C@H]3c4cc(-c5ccccn5)ncc4[C@H]4C[C@@H]3C4(C)C)c1)c1cc(-c3ccccn3)ncc12 | > 100 µM (inactive) | 4.62 µM (inactive) | 8.24 µM | 17.5 µM (inactive) | 3.12 µM (inactive) | 1.75 µM (inactive) | 1.41 µM (inactive) | 2.83 µM (inactive) | 0.889 µM (active) | > 72.4 µM (inactive) | 1.79 µM (inactive) | 12.6 µM (inactive) | 1.47 µM (inactive) | 4.39 µM (inactive) | 1.97 µM (inactive) | 4.92 µM (inactive) | 3.36 µM (inactive) | > 22.8 µM (inactive) | 4.62 µM (inactive) | –
2 | CC(=O)OC1CC2C(=O)C(=O)C1(C)C2(C)C (stereo not given) | > 100 µM (inactive) | > 100 µM (inactive) | > 100 µM | > 100 µM (inactive) | – | – | > 100 µM (inactive) | > 100 µM (inactive) | > 100 µM (inactive) | > 100 µM (inactive) | > 100 µM (inactive) | > 100 µM (inactive) | > 100 µM (inactive) | – | > 100 µM (inactive) | > 100 µM (inactive) | > 100 µM (inactive) | > 100 µM (inactive) | > 100 µM (inactive) | –
3 | CC(C)C1(Cl)CCC2C3(C)CCCC(C)(C(=O)O)C3CC(Cl)C2(Cl)C1Cl (stereo not given) | 48.8 µM (inactive) | 21.5 µM (inactive) | 36.6 µM | – | 18.2 µM (inactive) | 33.8 µM (inactive) | 19.4 µM (inactive) | 20.9 µM (inactive) | 23.9 µM (inactive) | 22.4 µM (inactive) | 38.7 µM (inactive) | 34.6 µM (inactive) | 20.8 µM (inactive) | – | 45 µM (inactive) | 16.7 µM (inactive) | 25.8 µM (inactive) | – | 31.1 µM (inactive) | 37.5 µM (inactive)
4 | OC1(c2ccc(-c3ccccc3)cc2)c2ccccc2C2=NCCN21 (stereo not given) | > 100 µM (inactive) | – | 39.9 µM | 16.6 µM (inactive) | 22.9 µM (inactive) | 34.8 µM (inactive) | 27.1 µM (inactive) | 18.3 µM (inactive) | 45.8 µM (inactive) | – | – | 11.9 µM (inactive) | 29 µM (inactive) | – | 29.6 µM (inactive) | 21.7 µM (inactive) | 19.8 µM (inactive) | 19.3 µM (inactive) | 36.1 µM (inactive) | 22.4 µM (inactive)
5 | Cc1[nH]c2ccccc2c1-c1cc(-c2cc(-c3c(C)[nH]c4ccccc34)nc(N)n2)nc(N)n1 | > 100 µM (inactive) | > 100 µM (inactive) | > 100 µM | > 100 µM (inactive) | > 100 µM (inactive) | > 100 µM (inactive) | > 100 µM (inactive) | 37.2 µM (inactive) | > 100 µM (inactive) | > 100 µM (inactive) | > 100 µM (inactive) | > 100 µM (inactive) | > 100 µM (inactive) | – | > 100 µM (inactive) | > 100 µM (inactive) | > 100 µM (inactive) | – | > 100 µM (inactive) | > 100 µM (inactive)
6 | COc1cccc(-c2nc(-c3cnccn3)n(C/C=C/c3ccccc3)n2)c1 | > 10 µM (inactive) | > 10 µM (inactive) | > 10 µM | – | > 10 µM (inactive) | > 10 µM (inactive) | > 10 µM (inactive) | > 10 µM (inactive) | > 10 µM (inactive) | > 10 µM (inactive) | > 10 µM (inactive) | > 10 µM (inactive) | – | – | > 10 µM (inactive) | – | – | 6.32 µM (inactive) | > 10 µM (inactive) | > 10 µM (inactive)
7 | Cc1c(C)c(C)c(-n2[nH]c(=O)n(C)c2=O)c(C)c1C | > 100 µM (inactive) | > 100 µM (inactive) | > 100 µM | > 100 µM (inactive) | > 100 µM (inactive) | > 100 µM (inactive) | > 100 µM (inactive) | > 100 µM (inactive) | > 100 µM (inactive) | > 100 µM (inactive) | > 100 µM (inactive) | > 100 µM (inactive) | > 100 µM (inactive) | – | > 100 µM (inactive) | > 100 µM (inactive) | > 100 µM (inactive) | > 100 µM (inactive) | > 100 µM (inactive) | > 100 µM (inactive)
8 | Cc1c2cccc-2c2cc(O)c3ccccc3c2n1-c1ccc(N(C)C)cc1 | 10.7 µM (inactive) | 2.83 µM (inactive) | 5.37 µM | 12.2 µM (inactive) | 6.82 µM (inactive) | 13.4 µM (inactive) | – | 9.68 µM (inactive) | 15.5 µM (inactive) | 10.9 µM (inactive) | 15.9 µM (inactive) | 11.7 µM (inactive) | 6.22 µM (inactive) | – | 15.9 µM (inactive) | 17.2 µM (inactive) | 11.8 µM (inactive) | 4.06 µM (inactive) | 28.1 µM (inactive) | 15 µM (inactive)
9 | O=C1CCCCCC1CC(Sc1ccccc1)Sc1ccccc1 (stereo not given) | – | > 100 µM (inactive) | > 100 µM | > 100 µM (inactive) | 60.8 µM (inactive) | > 100 µM (inactive) | 8.69 µM (inactive) | > 100 µM (inactive) | 64.7 µM (inactive) | > 100 µM (inactive) | > 100 µM (inactive) | 51.6 µM (inactive) | 37.6 µM (inactive) | > 100 µM (inactive) | > 100 µM (inactive) | > 100 µM (inactive) | 52.5 µM (inactive) | 49.3 µM (inactive) | 59.8 µM (inactive) | 96.2 µM (inactive)
10 | COc1c2cc(C(C)(C)C)cc1CSCc1cc(C(C)(C)C)cc(c1OC)CCCCC2 | 21.6 µM (inactive) | – | > 50 µM | > 50 µM (inactive) | > 50 µM (inactive) | – | 29.6 µM (inactive) | 20.5 µM (inactive) | 31.6 µM (inactive) | > 50 µM (inactive) | 28.2 µM (inactive) | 22.4 µM (inactive) | – | – | 46.2 µM (inactive) | 26.5 µM (inactive) | 24.1 µM (inactive) | > 50 µM (inactive) | 13.3 µM (inactive) | > 50 µM (inactive)
11 | O=C(NCc1cccc2ccccc12)N/N=C\c1ccc(Cl)cc1 | > 100 µM (inactive) | 36.1 µM (inactive) | > 100 µM | > 100 µM (inactive) | 49 µM (inactive) | > 100 µM (inactive) | > 100 µM (inactive) | > 100 µM (inactive) | 67 µM (inactive) | > 100 µM (inactive) | > 100 µM (inactive) | > 100 µM (inactive) | 77.1 µM (inactive) | > 100 µM (inactive) | 93.8 µM (inactive) | > 100 µM (inactive) | 46 µM (inactive) | 62.8 µM (inactive) | > 100 µM (inactive) | –
12 | COC(=O)CCC(NC(=O)OC(C)(C)C)C(=O)NC(Cc1ccc(NC(=O)CCCC(C)=O)cc1)C(=O)NC(CCC(=O)OC)C(=O)OC (stereo not given) | – | > 100 µM (inactive) | > 100 µM | > 100 µM (inactive) | > 100 µM (inactive) | > 100 µM (inactive) | > 100 µM (inactive) | > 100 µM (inactive) | > 100 µM (inactive) | > 100 µM (inactive) | > 100 µM (inactive) | > 100 µM (inactive) | > 100 µM (inactive) | > 100 µM (inactive) | > 100 µM (inactive) | > 100 µM (inactive) | > 100 µM (inactive) | > 100 µM (inactive) | > 100 µM (inactive) | > 100 µM (inactive)
13 | CCOC(=O)C1=C(C#N)S(=O)(=O)c2c(oc(C)c2C)N1 | > 100 µM (inactive) | > 100 µM (inactive) | > 100 µM | > 100 µM (inactive) | > 100 µM (inactive) | > 100 µM (inactive) | > 100 µM (inactive) | > 100 µM (inactive) | > 100 µM (inactive) | > 100 µM (inactive) | > 100 µM (inactive) | > 100 µM (inactive) | > 100 µM (inactive) | – | > 100 µM (inactive) | > 100 µM (inactive) | > 100 µM (inactive) | > 100 µM (inactive) | > 100 µM (inactive) | > 100 µM (inactive)
14 | CC(=O)CC(=O)Nn1c(-c2cccs2)nc2ccc(I)cc2c1=O | > 35.9 µM (inactive) | > 37.7 µM (inactive) | > 57.7 µM | > 66.4 µM (inactive) | > 54.7 µM (inactive) | > 46.5 µM (inactive) | > 70.1 µM (inactive) | > 42.3 µM (inactive) | > 56.1 µM (inactive) | > 55.1 µM (inactive) | > 57.3 µM (inactive) | > 51.5 µM (inactive) | > 57.9 µM (inactive) | > 68.9 µM (inactive) | > 47.3 µM (inactive) | > 100 µM (inactive) | > 41.6 µM (inactive) | 43.5 µM (inactive) | 33 µM (inactive) | –
15 | C1CSCCSCCS1 | > 100 µM (inactive) | > 100 µM (inactive) | > 100 µM | > 100 µM (inactive) | > 100 µM (inactive) | > 100 µM (inactive) | > 100 µM (inactive) | – | > 100 µM (inactive) | > 100 µM (inactive) | > 100 µM (inactive) | > 100 µM (inactive) | > 100 µM (inactive) | > 100 µM (inactive) | > 100 µM (inactive) | > 100 µM (inactive) | > 100 µM (inactive) | > 100 µM (inactive) | > 100 µM (inactive) | –
16 | CCOC(=O)CCCNC(=O)CCCCC(=O)N(C)C | > 100 µM (inactive) | > 100 µM (inactive) | > 100 µM | > 100 µM (inactive) | > 100 µM (inactive) | > 100 µM (inactive) | > 100 µM (inactive) | > 100 µM (inactive) | > 100 µM (inactive) | > 100 µM (inactive) | > 100 µM (inactive) | > 100 µM (inactive) | > 100 µM (inactive) | – | > 100 µM (inactive) | > 100 µM (inactive) | > 100 µM (inactive) | – | > 100 µM (inactive) | > 100 µM (inactive)
